# Columns and labels:
# Assay in all cases: relative viability (nuclei count vs DMSO), 5 days (fraction); higher = more cells survive
# [1] = compound: C1CNCCC1C2=CC(=NN2)C3=CC=NC=C3 + CS(=O)(=O)N1CCN(Cc2cc3nc(-c4cccc5[nH]ncc45)nc(N4CCOCC4)c3s2)CC1 [Pictilisib] (partner 1 µM)
# How it was run: (§1)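 Cells from lung cancer lines were seeded into 1536-well plates and, one day later, dosed by pin tool. Treatments were either a single drug or a fixed dose of an anchor drug with five library-drug doses (not always all listed) in √10 steps. After 5 days, nuclei were stained in a one-step fixation (final 0.05% Triton X-100, 1% formaldehyde, 1 ug/ml Hoechst) and counted on 4× images, and relative viability is the treated-to-vehicle nuclei ratio, as the median of duplicate plates.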
# [2] = compound: C1CNCCC1C2=CC(=NN2)C3=CC=NC=C3 + CC(=O)c1c(C)c2cnc(Nc3ccc(N4CCNCC4)cn3)nc2n(C2CCCC2)c1=O [Palbociclib] (partner 0.5 µM)
# How it was run: as §1
# [3] = compound: O[C@H]1CC[C@H](Nc2ncc3nc(Nc4c(F)cc(F)cc4F)n([C@H]4CCOC4)c3n2)CC1 [Tanzisertib] + C[C@]1(O)C[C@@H](c2nc(-c3ccc4ccc(-c5ccccc5)nc4c3)c3c(N)nccn32)C1 [Linsitinib] (partner 1 µM)
# How it was run: as §1
# [4] = compound: O[C@H]1CC[C@H](Nc2ncc3nc(Nc4c(F)cc(F)cc4F)n([C@H]4CCOC4)c3n2)CC1 [Tanzisertib] + CC1(C)CCC(c2ccc(Cl)cc2)=C(CN2CCN(c3ccc(C(=O)NS(=O)(=O)c4ccc(N[C@H](CCN5CCOCC5)CSc5ccccc5)c(S(=O)(=O)C(F)(F)F)c4)cc3)CC2)C1 [Navitoclax] (partner 0.5 µM)
# How it was run: as §1
Cell Line,relative viability ([1]; first compound 0.08 µM),relative viability ([1]; first compound 0.8 µM),relative viability ([1]; first compound 2.53 µM),relative viability ([1]; first compound 8 µM),relative viability ([2]; first compound 0.08 µM),relative viability ([2]; first compound 0.8 µM),relative viability ([2]; first compound 2.53 µM),relative viability ([2]; first compound 8 µM),relative viability ([3]; first compound 0.08 µM),relative viability ([3]; first compound 0.253 µM),relative viability ([3]; first compound 0.8 µM),relative viability ([3]; first compound 2.53 µM),relative viability ([3]; first compound 8 µM),relative viability ([4]; first compound 0.08 µM),relative viability ([4]; first compound 0.253 µM),relative viability ([4]; first compound 0.8 µM),relative viability ([4]; first compound 2.53 µM),relative viability ([4]; first compound 8 µM)
NCI-H1355,0.501,0.52,0.517,0.423,0.387,0.324,0.421,0.38,0.785,0.826,0.923,0.858,0.777,0.954,0.923,0.961,0.985,0.944
EKVX,0.42,0.516,0.42,0.447,0.38,–,0.412,0.395,0.953,1.02,1.04,1.02,0.822,0.95,0.923,0.96,0.91,0.861
NCI-H441,0.462,0.455,0.428,0.491,0.227,0.222,0.251,0.22,0.626,0.607,0.634,0.553,0.454,0.456,0.601,0.629,0.773,0.584
NCI-H1975,0.325,0.305,0.331,0.307,0.629,0.342,0.668,0.645,1.1,0.979,0.993,1.07,0.873,1.28,1.09,1.21,1.29,1.03
HCC-78,0.21,–,0.189,0.223,0.503,0.429,0.472,0.479,0.478,0.524,0.528,0.367,0.529,0.705,0.741,0.766,0.801,0.673
NCI-H2085,0.406,–,0.448,0.546,0.519,–,0.481,0.485,1.03,0.808,0.905,0.826,0.83,1.11,1.05,1.2,1.09,1.14
H3255,0.469,0.477,0.511,0.442,0.309,0.338,0.327,0.346,0.966,0.841,0.983,0.907,0.636,0.618,0.587,0.428,0.434,0.12
NCI-H2087,0.855,1.03,1.1,1.09,0.18,0.22,0.196,0.276,1.12,1.07,0.98,1.24,0.957,1.04,0.961,0.957,1.04,0.95
LC-2-ad,0.43,0.469,0.625,0.48,0.532,0.548,0.462,0.437,0.94,0.838,0.921,0.812,0.796,0.549,0.441,0.548,0.534,0.507
PC-3 [JPC-3],0.719,0.721,0.738,0.766,0.547,0.495,0.558,0.541,1.05,0.957,0.963,0.963,0.899,0.898,0.815,0.866,0.81,0.853
EBC-1,0.447,0.425,0.364,0.409,–,–,–,–,1.29,0.876,0.846,0.899,0.783,0.433,0.419,0.451,0.404,0.318
HCC-15,0.738,0.772,0.722,0.75,0.734,0.849,0.79,0.699,1.05,0.833,0.896,0.786,0.924,0.754,0.699,0.702,0.671,0.694
NCI-H1563,0.575,0.662,0.592,0.611,–,–,–,–,1.28,1.12,1.2,1.24,1.16,–,–,–,–,–
COR-L 105,0.421,0.429,0.398,0.396,0.394,0.405,0.421,0.472,1.13,0.78,0.895,1.12,0.77,0.88,0.789,0.728,0.819,0.683
NCI-H520,0.277,0.324,0.293,0.351,0.176,0.167,0.219,0.147,1.19,1.11,0.941,0.832,0.927,1.12,1.1,1.1,1.01,1.11
LU99A,0.321,0.366,0.316,0.307,0.405,0.389,0.435,0.391,0.557,0.481,0.505,0.523,0.537,0.713,0.847,0.879,0.743,0.781
NCI-H1666,0.463,0.335,0.641,0.463,0.657,0.662,0.667,0.669,0.834,0.862,0.832,0.777,0.933,0.972,1.03,0.916,1.06,0.878
NCI-H2170,0.278,0.304,0.309,0.364,0.36,0.454,0.407,0.4,–,–,–,–,–,0.702,0.496,0.656,0.57,0.582
NCI-H522,–,–,–,–,0.949,1.1,0.945,1.02,–,–,–,–,–,–,–,–,–,–
LCLC-97TM1,0.275,0.241,0.283,0.175,0.206,0.295,0.251,0.194,–,0.18,0.192,0.186,0.2,–,0.53,0.38,0.394,0.462
